Results from US20190388510A1, “GLUCAGON-T3 CONJUGATES” (priority 2016, published 2019).

Legend:
Format in all cases: in vivo, mouse
[1] = system: diet-induced obese (DIO) mice
Source text: For studies on lipid handling in wildtype mice (Western mice), male C57Bl/6j mice (Jackson Laboratories) were fed a atherogenic Western diet (Research Diets D12079B), which is a high-cholesterol diet (0.21% gm %) with 41% kcal from fat, 43% kcal from carbohydrates, and 17% kcal from protein. For studies on energy metabolism in obese mice (DIO mice), male C57Bl/6j mice (Jackson Laboratories) were fed a diabetogenic diet (Research Diets D12331), which is a high-sucrose diet with 58% kcal from fat 25.5% kcal from carbohydrates, and 16.4% kcal from protein. Both dietary challenges began at 8 weeks of age. HFHSD and HFHCD mice were single- or group-housed on a 12:12-h light-dark cycle at 22° C. with free access to food and water. Mice were maintained under these conditions for a minimum of 16 weeks before initiation of pharmacological studies and were between the ages of 6 months to 12 months old. All injections and tests were performed during the light cycle. Compounds were administered in a vehicle of 1% Tween-80 and 1% DMSO and were given by daily subcutaneous injections at the indicated doses at a volume of 5 μl per g body weight. Mice were randomized and evenly distributed to test groups according to body weight and body composition. If ex vivo molecular biology/histology/biochemistry analyses were performed, the entire group of mice for each treatment was analyzed and scored in a blinded fashion.
(§1) Compounds were administered by repeated subcutaneous injections in the middle of the light phase at the indicated doses with the indicated durations. Co-administration of compounds was administered by single formulated injections. Body weights and food intake were measured every day or every other day after the first injection. All studies with wild-type mice were performed with a group size of n=8 or greater using mice on a C57B16j background.
Whole-body composition (fat and lean mass) was measured using nuclear magnetic resonance technology (EchoMRI).
(§2) Energy intake, energy expenditure, respiratory exchange ratio, and home-cage activity were assessed using a combined indirect calorimetry system (TSE Systems). O2 consumption and CO2 production were measured every 10 min for a total of up to 120 h (after 24 h of adaptation) to determine the respiratory quotient and energy expenditure after an initial treatment regimen. Food intake was determined continuously for the same time as the indirect calorimetry assessments by integration of scales into the sealed cage environment. Home-cage locomotor activity was determined using a multidimensional infrared light beam system with beams scanning the bottom and top levels of the cage, and activity being expressed as beam breaks.
Blood was collected at the indicated times from tail veins or after euthanasia using EDTA-coated microvette tubes (Sarstedt), immediately chilled on ice, centrifuged at 5,000 g and 4° C., and plasma was stored at −80° C. For […] (FPLC) of cholesterol distribution in different lipoprotein fractions, fresh plasma from each treatment group was pooled (n=6-8) and ran over two Superose 6 HR columns in tandem. Cholesterol levels in the collected fractions were determined by colorimetric assay. Plasma insulin and T3 were quantified by an ELISA assay (Ultrasenstive Mouse Insulin ELISA and Rodent T3 ELISA; Alpco). Plasma FGF21 was quantified by an ELISA assay (Mouse FGF21 ELISA; Millipore). Plasma cholesterol, extracted hepatic cholesterol, triglycerides, ALT, and AST were measured using enzymatic assay kits (Thermo Fisher). Plasma creatinine and blood urea nitrogen were measured using enzymatic assay kits (Abcam). Plasma free fatty acids were measured using enzymatic assay kits (Wako). All assays were performed according to the manufacturers' instructions. […]

DIO mice [2] = test: Glycemic control in DIO mice; conditions: i.p. pyruvate 1.5 g kg-1
Method: as §1
For assessment of glucose, pyruvate, and insulin tolerance during chronic treatment, the challenge tests were performed at least 24 hours after the last administration of compounds. […]
as §2, with “breaks. […]” for “breaks.”

DIO mice [3] = test: Cardiac function and histology in DIO mice (echocardiography)
Method: After chronic treatment, HFHCD-fed or HFHSD-fed C57B16/j male mice (age) were sacrificed with CO2, body weight as well as heart weights and tibia length was taken during necropsy. Livers and whole hearts were embedded in paraffin using a vacuum infiltration processor TissueTEK VIP (Sakura). 3 μm thick slides were cut using a HMS35 rotatory microtome (Zeiss) and H & E staining was performed. For H & E staining, rehydration was done in a decreasing ethanol series, rinsing with tapwater, 2 min Mayers acid Hemalum, bluing in tapwater followed by lmin EosinY (both BioOptica). Dehydration was performed in increasing ethanol series, mounting with Pertex® (Medite GmbH) and coverslips (CarlRoth Chemicals). The slides were evaluated independently using a brightfield microscope (Axioplan, Zeiss). Photos were taken using the Hamamatsu-Nanozoomer HT2.0 in 1.25×, 5×. 20× and 40× magnification. The hepatic steatosis score is defined as the unweighted sum of the three individual scores for steatosis, lobular inflammation and ballooning degeneration. Steatosis is graded by the presence of fat vacuoles in liver cells according to the percentage of affected tissue (0: <5%; 1: 5-33%; 2: 33-66%; 3: >66%). Lobular inflammation is scored by overall assessment of inflammatory foci per 200× field (0: no foci; 1: <2 foci; 2: 2-4 foci; 3: >4 foci). The individual score for ballooning degeneration ranges from 0 (none), 1 (few cells) to 2 (many cells). Total scores range from 0 to 8 with scores <2 considered non-steatosis, 3 considered as borderline steatosis, 4-5 considered onset of steatosis, and >6 considered steatosis. Different to liver and heart, inguinal fat pad samples were embedded in paraffin using Leica embedding machine (EG1150 H) and cut in 5 μm sections using Leica Microtome (RM2255) to perform H&E staining. Samples were stained with hematoxyline for 4 minutes and eosinY for 2 minutes and fixed with Roti®-Histokitt (Carl Roth) before analysing them independently using Microscope Scope A.1 (Zeiss).
For transthoracic echocardiography, a Vevo2100 Imaging System (VisualSonics Inc., Toronto Canada) with a 30 MHz probe was used. All echocardiograms were performed on conscious animals to prevent anesthesia-related impairment of cardiac function as reported previously. Briefly, echocardiograms were obtained in parasternal long and short axis views. For accurate linear measurements of LV internal dimensions (LVID) and […] (LVPW) or septal (IVS) wall thicknesses, M-mode images of the heart in parasternal short-axis view at the level of the papillary muscle were acquired. Qualitative and quantitative measurements were made offline using analytical software (VisualSonics Inc.). Fractional shortening (FS) was calculated as FS %=[(LVIDd−LVIDs)/LVIDd]×100. Ejection fraction (EF) was calculated as EF %=100*((LVvolD−LVvolS)/LVvolD) with LVvol=((7.0/(2.4+LVID)*LVID^3). The corrected LV mass (LV MassCor) was calculated as LV MassCor=0.8(1.053*((LVIDd+LVPWd+IVSd)^3−LVIDd^3)). Heart rate and respiration rate were determined from M-mode tracings, using 3 consecutive intervals.
Gene expression profiling in the liver, iWAT, eWAT, BAT, and heart were performed following treatment of mice according to the treatment paradigms explained in the figure legends for each specific analsysis. For tissue collection, mice were fasted for 4 h and treated with compounds 2 h prior to tissue collection. Gene expression was profiled with quantitative real-time RT-PCR using either TaqMan single probes or with specifically-designed TaqMan low-density array cards. The relative expression of the selected genes was normalized to the reference gene hypoxanthine-guanine phosphoribosyltransferase (Hprt).

N[C@@H](Cc1cc(I)c(Oc2ccc(O)c(I)c2)c(I)c1)C(=O)O [T3, 3,5,3′-triiodothryonine]
home cage (ambulatory) activity ([1]; DIO mice on HFHSD): significantly increased | food intake ([1]; DIO mice on HFHSD, 7 days): increased | body weight lowering ([1]; DIO mice on HFHSD, equimolar doses, 100 nmol kg-1 daily, 7 days): Neither glucagon nor T3 appreciably lowered body weight | whole-body energy expenditure ([1]; DIO mice on HFHSD, indirect calorimetry): substantially increased | circulating levels of T3 ([1]; mouse, in vivo): resulted in an increase | rectal temperature ([1]; mouse, in vivo): increased rectal temperature | pyruvate tolerance (hepatic glucose output) (DIO mice [2]): substantially improved | heart histology: cell death (DIO mice [3]; histological profiling of the hearts): marked cell death was detectable | heart histology: thyrotoxic cardiomyopathy (DIO mice [3]; mouse, in vivo): marked features of thyrotoxic cardiomyopathy | whole heart expression of T3-sensitive genes (Dio2, Ucp2) (DIO mice [3]; mouse, in vivo): directly increased | whole heart expression of hypertrophic gene markers (Nppa, Nppb) (DIO mice [3]; mouse, in vivo): directly increased
